This assay has as its system osteoclasts. The experiment in a line: Zoledronic acid treatment of normal mice: serum bone markers (ELISA) and micro-CT bone volumes. The format is in vivo. The conditions noted are these: normal ZA-treated mice; 0.25 mg/kg i.p. bi-weekly; vehicle 142±28; p=0.0296. On the procedure: The right hindlimb of each mouse was fixed in 10% Formalin for 48 hours, and then stored in 70% ethanol at 4° C. MicroCT analysis was performed as previously described (2009, Frisch et al., Blood 114:4054-4063).
All ELISAs were performed as indicated by the manufacturer's instructions. CTX measurements were performed using the RatLaps ELISA (AC-06F1, Immunodiagnostic Systems Inc.). TRACP 5b measurement was performed using Mouse TRAP ELISA (SB-TR103, Immunodiagnostic Systems Inc.). Osteocalcin measurement performed using the Mouse Osteocalcin EIA kit (BT-470, Biomedical Technologies). Bovine CTX from bone wafer culture media was measured using the Crosslaps® for Culture ELISA (AC-07F1, Immunodiagnostic Systems Inc.). Murine CCL3 protein measurement was performed using the Mouse CCL3/MIP-1 alpha Quantikine ELISA Kit (MMA00, R&D systems). Human CCL3 protein measurement was performed using the Human CCL3/MIP-1 alpha Quantikine ELISA Kit (DMA00, R&D systems).
Mice were given a 0.25 mg/kg intraperitoneal injection of zoledronic acid (ZA) bi-weekly for 2 weeks prior to induction of disease and throughout the course of the disease.

For the compound `O=P(O)(O)C(O)(Cn1ccnc1)P(=O)(O)O` [ZA, Zoledronic acid], the “serum levels of osteocalcin” value worked out at 49 ± 1 ng/mL.
